Assay results from ChEMBL document CHEMBL1159214, “The antiallergic activities of synthetic acrophylline and acrophyllidine” (J Nat Prod, 1995).
Calls of active or inactive are those of the source. No cut-off for these calls is given here.

Columns and labels:
Mast cell [1] = assay: Inhibition of compound 48/80-challenged Sprague-Dawley rat peritoneal mast cell degranulation assessed as beta-glucuronidase release up to 100 uM administered 3 mins prior to compound 48/80 challenge measured after 15 mins; format: functional, cell-based
Mus musculus = assay: Suppression of anti-dinitrophenyl-coupled albumin-induced passive cutaneous anaphylaxis reaction-associated ear edema in mouse assessed as reduction of volume of plasma exudation at 30 umol/kg, ip administered 30 mins prior to DNP-albumin challenge measured after 45 mins; format: functional, organism-based
Mast cell [2] = assay: Inhibition of compound 48/80-challenged Sprague-Dawley rat peritoneal mast cell degranulation assessed as beta-glucuronidase release at 30 uM administered 3 mins prior to compound 48/80 challenge measured after 15 mins; format: functional, cell-based
Mast cell [3] = assay: Inhibition of compound 48/80-challenged Sprague-Dawley rat peritoneal mast cell degranulation assessed as beta-glucuronidase release at 10 uM administered 3 mins prior to compound 48/80 challenge measured after 15 mins; format: functional, cell-based

Row | Structure (SMILES) | Activity (Mast cell [1]) | Activity (Mus musculus) | Activity (Mast cell [2]) | Activity (Mast cell [3])
1 | COc1ccc2c(=O)c3ccoc3n(CCC(C)(C)O)c2c1 | inactive | Active | – | –
2 | COc1ccc2c(=O)c3ccoc3n(CC=C(C)C)c2c1 | – | Active | Active | Active
